# pEC50, pIC50: −log10 of the molar value. Where a name gives a salt, the structure may show the parent alone.
# What was measured:
# [1] = Steroidomic (GC-MS/MS) analysis of hippocampal tissue after PA-G administration; conditions: for measurable concentration in the rat brain / increase in concentration compared with basal levels: after PA-G i.p.; for fold increase in the concentration in the rat hippocampus above the basal levels / percentage of total significantly increased (5β) steroids in the rat hippocampus / concentration at 20 min: 20 min after PA-G i.p., 1 mg/kg in CDX; for concentration at 20 min: male, Wistar, rat, in vivo, ip, Steroid concentration in hippocampal tissue, PA-G-Treated (P);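 on all read-outs here: hippocampal steroids quantified by GC-MS/MS, covering free and conjugated forms after hydrolysis, compared against intact rats and rats injected with CDX vehicle alone, five animals per group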
# Description: In a separate experiment, samples of the hippocampus were obtained from male albino Wistar rats in 6 experimental groups consisting of P12 and P25 animals that were either intact (I), controls (C, i.p. application of a solution of CDX), or in the experimental group (i.p. application of PA-G in a solution of CDX at a dose of 1 mg/kg). Each group consisted of 5 animals. The animals were sacrificed using ether anaesthesia (Penta, Czech Republic) 30 min after administration of the drug. The hippocampi were quickly removed, weighed, and frozen at −80 °C in sterile plastic microvials until analysis.
# An amount of 17–100 mg of the hippocampal tissue was minced and then administered into screw-cap tubes. Next, 2 mL of methanol with a mixture of internal standards was added, and the samples were incubated for 1 week in a refrigerator at 4 °C with agitation for 2 min once a day. Afterwards, the extract was transferred into new screw-cap tubes and dried in a vacuum centrifuge at 45 °C. After that, 1 mL of water of chromatographic purity was added, and the samples were further treated as described in our recently published paper [76].
# Briefly, the unconjugated steroids were extracted from a testing sample with diethyl-ether, the extract was dried, and the lipids were separated by partitioning between a mixture of methanol with water (4:1, v/v) and pentane. The pentane phase was discarded, and the polar phase was dried and used for further analysis of the unconjugated steroids. Steroid conjugates remaining in the polar residue after diethyl ether were hydrolyzed to their parent hydroxy steroids (unconjugated molecules) and analyzed.
# NMDARs = conditions: NMDA-induced currents, transfected HEK293 cells; cited from earlier work
# [2] = tested on: pentylenetetrazol-induced seizures; assay: Pentylenetetrazol (PTZ)-induced seizures in 12- and 25-day-old rats; format: in vivo, male Wistar albino rats; conditions: for incidence of generalized seizures (GS): i.p. 20 mg/kg (highest dose tested)
# Description: Solutions of PA-G and PA-S were administered intraperitoneally at a concentration of 1 mg/mL, and doses of 1, 5, 10, and 20 mg/kg were used. The solutions of zuranolone were administered intraperitoneally at a concentration of 1 mg/mL, and doses of 0.5, 1, 5, and 10 mg/kg were used. Controls were injected with CDX solution in a volume corresponding to the highest dose (i.e., 20 mL/kg). The same control group was used for PA-S and PA-G. Pentylenetetrazol (PTZ, Sigma Aldrich, Gillingham, Dorset, UK) was dissolved in water in a concentration of 50 mg/mL and was administered subcutaneously at a dose of 100 mg/kg 20 min after the administration of PA-G or PA-S. Each age and dose group comprised 8 animals. The rats were placed individually into plexiglass boxes and were then observed for 30 min after PTZ injection. The incidence, severity, and latencies of seizures were assessed. Younger animals were placed on a pad heated to 34 °C, i.e., to the temperature in the nest for the whole duration of the experiment because of immature thermoregulation. Generalized tonic-clonic or clonic seizures with a loss of righting reflexes were present after a dose of 100 mg/kg of PTZ in all control animals in both age groups. […] The severity of seizures was quantified using a five-point scale as follows: 0—no changes; 0.5—abnormal behaviour (e.g., automatisms, increased orienting reaction); 1—isolated myoclonic jerks; 2—atypical or prolonged minimal seizures; 3—clonic seizures (mS) involving head and forelimb muscles with preserved righting reflexes (older-term minimal pentetrazol seizures); 4—generalized seizures without the tonic phase (GCS); 5—complete generalized tonic-clonic seizures (GTCS).
# GABAARs = tested on: GABAARs; design: method as in PMID 29886074; conditions: isolated pyramidal neurons of the rat hippocampus, cited from earlier work
# [3] = P12 rats, i.p. doses of 5 and 10 mg/kg
Compound,fold increase in the concentration in the rat hippocampus above the basal levels ([1]; P12) [x],fold increase in the concentration in the rat hippocampus above the basal levels ([1]; P25) [x],percentage of total significantly increased (5β) steroids in the rat hippocampus ([1]; P25),percentage of total significantly increased (5β) steroids in the rat hippocampus ([1]; P12) [%],"concentration at 20 min ([1]; 1 mg/kg, 12-day-old rats) [ng/g]","concentration at 20 min ([1]; 1 mg/kg, 25-day-old rats) [ng/g]",other results
17α-hydroxyprogesterone,,,,,,,measurable concentration in the rat brain ([1]; 1 mg/kg): did not detect measurable concentrations
"C[C@]12CC[C@@H](O)C[C@H]1CC[C@@H]1[C@@H]2[C@@H](O)C[C@]2(C)[C@@H](C(=O)CO)CC[C@@H]12 [3α,5β-THCC, 3α,5β-tetrahydrocorticosterone]",4.47,1,less than 0.01%,,,,"percentage of total significantly increased (5β) steroids in the rat hippocampus ([1]; P12, 1 mg/kg): approximately 8%; percentage of total significantly increased (5β) steroids in the rat hippocampus ([1]; P12, listed as 3α,5β-Tetrahydrocorticosterone (3α,5β-THCC), 1 mg/kg): 8.12%"
"C[C@H](O)[C@@]1(O)CCC2C3CC[C@@H]4C[C@H](O)CC[C@]4(C)C3CC[C@@]21C (stereo partly drawn) [3α,17α,20α-Trihydroxy-5β-pregnane]",9.16,2.39,1.05%,0.74,5.86,0.951,
"C[C@H](O)[C@H]1CCC2C3CC[C@@H]4C[C@H](O)CC[C@]4(C)C3CC[C@@]21C (stereo partly drawn) [3α,20α-Dihydroxy-5β-pregnane]",78.1,15.7,1.72%,1.23,8.42,0.919,
"CC(=O)[C@H]1CCC2C3CC[C@@H]4CC(=O)CC[C@]4(C)C3CC[C@@]21C (stereo partly drawn) [5β-Dihydroprogesterone, 5β-dihydroprogesterone]",19,1.9,0.09%,0.07,0.477,0.0943,
CC(=O)[C@@]1(O)CCC2C3CC[C@H]4C[C@H](O)CC[C@]4(C)C3CC[C@@]21C (stereo partly drawn) [17-Hydroxyallopregnanolone],,,,,8.36,3.19,
CC(=O)[C@@]1(O)CC[C@H]2[C@@H]3CC[C@@H]4C[C@H](OC(=O)[C@@H](N)CCC(=O)O)CC[C@]4(C)[C@H]3CC[C@@]21C [17-Hydroxypregnanolone glutamate],84.6,14.7,0.015%,0.04,,,
CC(=O)[C@@]1(O)CC[C@H]2[C@@H]3CC=C4CCCC[C@]4(C)[C@H]3CC[C@@]21C [17α-hydroxypregn-5-en-20-one],,,,,,,measurable concentration in the rat brain ([1]; 1 mg/kg): did not detect measurable concentrations
C[C@H](O)[C@H]1CC[C@H]2[C@@H]3CC[C@@H]4C[C@H](OC(=O)[C@@H](N)CCC(=O)O)CC[C@]4(C)[C@H]3CC[C@]12C [(20S)-Hydroxypregnanolone glutamate],99.7,10.2,0.93%,0.53,,,
"CC(=O)[C@H]1CC[C@H]2[C@@H]3CC[C@H]4C[C@H](O)CC[C@]4(C)[C@H]3CC[C@]12C [Allopregnanolone, allopregnanolone]",,,,,0.246,0.144,
"C[C@]12CC[C@H](OS(=O)(=O)O)CC1=CCC1C2CC[C@@]2(C)C1CC[C@@H]2O (stereo partly drawn) [Androstenediol sulfate, androstenediol sulfate]",,,,,6.07,1.62,
"C[C@]12CC[C@H]3[C@@H](CC=C4C[C@@H](O)CC[C@@]43C)[C@@H]1CC[C@@H]2O [Androstenediol, androstenediol]",,,,,0.758,0.364,
"C[C@]12CC[C@H](O)CC1=CC[C@@H]1[C@@H]2CC[C@]2(C)C(=O)CC[C@@H]12 [Dehydroepiandrosterone (DHEA), dehydroepiandrosterone]",,,,,1.13,0.644,
"C[C@]12CC[C@@H](O)C[C@H]1CC[C@@H]1[C@@H]2CC[C@]2(C)C(=O)CC[C@@H]12 [Etiocholanolone (ETIO), etiocholanolone]",,,0.08%,0.1,,,"increase in concentration compared with basal levels ([1]; P12 animals, 1 mg/kg): ~12 fold; increase in concentration compared with basal levels ([1]; P25 animals, 1 mg/kg): ~2 fold"
"CC(=O)[C@H]1CC[C@H]2[C@@H]3CC[C@@H]4C[C@H](O)CC[C@]4(C)[C@H]3CC[C@]12C [PA, pregnanolone]",272,12.8,9.30%,9.47,63.6,5.02,"increase in concentration compared with basal levels ([1]; P12 animals, 1 mg/kg): up to 272 fold; percentage of the brain's total 5β-steroids in the hippocampus after PA-G administration ([1]; stated over P12 and P25 animals, 20 min after PA-G): approximately 10%"
"CC(=O)[C@H]1CCC2C3CC[C@@H]4C[C@H](OC(=O)[C@@H](N)CCC(=O)O)CC[C@]4(C)C3CC[C@@]21C (stereo partly drawn) [PA-G, 20-oxo-5β-pregnan-3α-yl L-glutamyl 1-ester]",199,9.76,10.8%,6.04,,,"pIC50 (NMDARs): 4.14; latencies of GS ([2]; P12 rats, Kruskal-Wallis over dose groups): increase in the latencies of GS; incidence of generalized seizures (GS) ([2]; P12 rats): prevented the development of GS in all animals; seizure severity ([2]; P12 rats, i.p. 1, 5, 10, 20 mg/kg, Kruskal-Wallis over dose groups): suppressed seizure severity; tonic phase (TP) of GTCS [2, 3]: completely abolished TP; seizure severity ([2]; P25 rats, Kruskal-Wallis over dose groups): affected seizure severity; latencies of GS ([2]; P25 rats, i.p. 10 mg/kg): prolonged; incidence of GTCS ([2]; P25 rats, i.p. 20 mg/kg): completely suppressed these seizures; seizure severity (score) ([2]; P25 rats, i.p. 20 mg/kg): decreased score; maximum potentiation of IGABA peak amplitude (GABAARs): up to 422%; pEC50 (GABAARs; read-out: EC50 (increase of IGABA peak)): 5.15"
"CC(=O)[C@H]1CC[C@H]2[C@@H]3CC[C@@H]4C[C@H](OS(=O)(=O)O)CC[C@]4(C)[C@H]3CC[C@]12C [PA-S, pyridinium 20-oxo-5β-pregnan-3α-yl sulfate]",,,,,,,"pIC50 (NMDARs): 4.62; incidence of generalized seizures (GS) ([2]; P12 rats): completely eliminated GS; seizure severity ([2]; P12 rats, i.p. doses of 5 mg/kg and higher, 20 min before PTZ 100 mg/kg s.c.): significant decrease in seizure severity; latencies of GS [2, 3]: significantly prolonged the latencies of GS; tonic phase (TP) of GTCS [2, 3]: completely abolished TP; parameters of minimal seizures (mS) ([2]; P25 rats): did not affect any parameters of mS; tonic phase (TF) of GTCS ([2]; P25 rats): did not exhibit specific effects against the TF of GTCS; incidence of GS ([2]; P25 rats, chi2 test over dose groups, Fisher's tests no differences between individual groups): affected the incidence of GS; seizure severity (score) ([2]; P25 rats, i.p. 20 mg/kg): lower score"
"CC(=O)[C@H]1CCC2C3CC=C4C[C@@H](O)CC[C@]4(C)C3CC[C@@]21C (stereo partly drawn) [Pregnenolone (PE), pregnenolone]",,,,,4.69,3.44,

# From publication PMC8780580, “The Neuroactive Steroid Pregnanolone Glutamate: Anticonvulsant Effect, Metabolites and Its Effect on Neurosteroid Levels in Developing Rat Brains” (Pharmaceuticals, 2021)
